{"source": "paper PMC8427442", "about": "(Frontiers in Pharmacology, 2021)", "key": {"IL-6, IL-1β, IL-8 mRNA": {"tested_on": "IL-6, IL-1β, IL-8 mRNA", "experiment": "Proinflammatory gene mRNA by RT-PCR in LPS-stimulated A549 cells", "type": "cell-based, human", "conditions": "20 µM; for potency in reducing the levels of the four proinflammatory factors (TNF-α, IL-6, IL-1β, IL-8), compared to UJ: LPS-stimulated A549 cells"}, "SARS-CoV 3CLpro": {"target": "SARS-CoV 3CLpro (Severe acute respiratory syndrome coronavirus, UniProt P0C6X7)", "type": "biochemical"}, "SARS-CoV-2 3CLpro": {"target": "SARS-CoV-2 3CLpro (Severe acute respiratory syndrome coronavirus 2, UniProt P0DTD1)", "experiment": "Protease activity assay with IQF peptide substrate, dose-response", "type": "biochemical", "conditions": "for IC50: IC50 against SARS-CoV-2 3CLpro, 0.125 µM 3CLpro, 1 h preincubation at 37°C, 1.25 µM IQF peptide substrate, 3 h, N = 3, mean ± SEM; for relative SARS-CoV-2 3CLpro activity (down from 100%): compound at 12.5 µM, data not shown"}, "in vitro": {"experiment": "in vitro", "conditions": "African green monkey, half-maximal cytotoxic concentration (CC50)"}, "SARS-CoV-2": {"tested_on": "SARS-CoV-2", "experiment": "Plaque assay in SARS-CoV-2-infected Vero E6 cells", "type": "cell-based"}, "TNF-α": {"tested_on": "TNF-α", "experiment": "TNF-α protein level by western blot in LPS-stimulated A549 cells", "type": "cell-based, human", "conditions": "20 µM, 1 h before 10 μg/ml LPS, 24 h", "text": "For western blot analysis, an equal amount of the samples were resolved by SDS-PAGE, followed by transfer to PVDF membranes, following the protocol published previously ([Chiang et al., 2020]). Antibodies against TNF-α (GTX110520) and β-actin (GTX109639) were purchased from GeneTex, Taiwan. HRP-conjugated secondary antibodies were from Jackson ImmunoResearch Laboratories, Inc., United States. WesternBright® ECL kits were used for protein visualization (Advansta Inc., United States). Levels of protein expression were quantified in Fiji ([Schindelin et al., 2012]).\nHuman alveolar basal epithelial A549 cells have been used to investigate several lung diseases at the cellular level, including endotoxin-induced acute pneumonia ([Zhang J. et al., 2020]). To evaluate the anti-inflammatory effect of UJ, A549 cells were induced with lipopolysaccharide (LPS) for 24 h with or without treatment with UJ. Dexamethasone (Dex), an anti-inflammatory agent ([Chen et al., 2021]), was included as a positive control. […] In addition, the expression levels of proinflammatory genes, including interleukin 1β (IL-1β), IL-6 and IL-8 increased by 1.5- to 2-fold in LPS-stimulated A549 cells, compared with the control group (Figures 4B–D). […] Compared to the positive control (Dex at 5 µM), UJ treatment at 20 µM gave rise to a greater decrease in the TNF-α protein level and IL-6 and IL-8 mRNA. […]"}, "[1]": {"conditions": "1 h before 10 μg/ml LPS, 24 h, A549 cells"}}, "note": "Values joined by “and” are separate entries in the source; they are usually repeats but may differ in a detail not shown here. Identical values can stand only once.", "data": [{"smiles": "O=c1c(O)c(-c2ccc(O)cc2)oc2cc(O)cc(O)c12", "note": "[Kae, kaempferol]", "values": [{"measurement": "potency in reducing the levels of the four proinflammatory factors (TNF-α, IL-6, IL-1β, IL-8), compared to UJ", "setting": "IL-6, IL-1β, IL-8 mRNA", "value": "relatively moderate potency"}, {"measurement": "relative SARS-CoV 3CLpro activity (down from 100%)", "setting": "SARS-CoV 3CLpro", "value": "60–70%"}, {"measurement": "IC50", "setting": "SARS-CoV-2 3CLpro", "value": "> 20 µM and 21.7 µM"}, {"measurement": "relative SARS-CoV-2 3CLpro activity (down from 100%)", "setting": "SARS-CoV-2 3CLpro", "value": "60–70%"}]}, {"smiles": "O=c1cc(-c2ccc(O)c(O)c2)oc2cc(O)cc(O)c12", "note": "[Lu, luteolin]", "values": [{"measurement": "IC50", "setting": "SARS-CoV-2 3CLpro", "value": "> 20 µM and 20.5 µM"}]}, {"smiles": "C=C1CCCC(C)(C)[C@@H]1Cc1c(O)cc2oc(-c3ccc(O)c(O)c3)cc(=O)c2c1O", "note": "[UJ, ugonin J]", "values": [{"measurement": "CC50 at 48 h", "setting": "in vitro", "value": "~783", "unit": "µM"}, {"measurement": "EC50", "setting": "SARS-CoV-2; Severe acute respiratory syndrome coronavirus 2, Vero C1008, Vero E6 cells, 100 PFU, 1 h pretreatment, 3 days, N = 3, mean ± SEM, read-out: half-maximal effective concentration (EC50) against SARS-CoV-2 infection", "value": "~2.38", "unit": "µM"}, {"measurement": "prevention of SARS-CoV-2 infection", "setting": "SARS-CoV-2; pretreatment at 10 µM, Vero E6 cells, plaque assay", "value": "near complete prevention"}, {"measurement": "reduction of TNF-α protein expression level", "setting": "TNF-α", "value": "more than 2 fold"}, {"measurement": "downregulation of IL-1β mRNA expression level", "setting": "IL-6, IL-1β, IL-8 mRNA; [1]", "value": "more than 1 fold"}, {"measurement": "downregulation of IL-6 mRNA expression level", "setting": "IL-6, IL-1β, IL-8 mRNA; [1]", "value": "more than 1 fold"}, {"measurement": "downregulation of IL-8 mRNA expression level", "setting": "IL-6, IL-1β, IL-8 mRNA; [1]", "value": "more than 1 fold"}, {"measurement": "relative SARS-CoV 3CLpro activity (down from 100%)", "setting": "SARS-CoV 3CLpro", "value": "about 15%"}, {"measurement": "IC50", "setting": "SARS-CoV-2 3CLpro", "value": "0.94 µM and ~0.94 µM"}, {"measurement": "relative SARS-CoV-2 3CLpro activity (down from 100%)", "setting": "SARS-CoV-2 3CLpro", "value": "about 15%"}]}, {"smiles": "CCC(CC)COC(=O)[C@H](C)N[P@](=O)(OC[C@H]1O[C@@](C#N)(c2ccc3c(N)ncnn23)[C@H](O)[C@@H]1O)Oc1ccccc1", "note": "[Rem, Remdesivir]", "values": [{"measurement": "inhibition at 2 µM", "setting": "SARS-CoV-2; Severe acute respiratory syndrome coronavirus 2, Vero C1008, 2 µM, Vero E6 cells, plaque assay, read-out: inhibition of SARS-CoV-2 infection", "value": "~95", "unit": "%"}]}, {"smiles": "COc1c(-c2ccc(O)cc2)oc2cc(O)cc(O)c2c1=O", "note": "[Ikae, isokaempferide]", "values": [{"measurement": "potency in reducing the levels of the four proinflammatory factors (TNF-α, IL-6, IL-1β, IL-8), compared to UJ", "setting": "IL-6, IL-1β, IL-8 mRNA", "value": "relatively moderate potency"}, {"measurement": "relative SARS-CoV 3CLpro activity (down from 100%)", "setting": "SARS-CoV 3CLpro", "value": "60–70%"}, {"measurement": "IC50", "setting": "SARS-CoV-2 3CLpro", "value": "> 20 µM and 40.2 µM"}, {"measurement": "relative SARS-CoV-2 3CLpro activity (down from 100%)", "setting": "SARS-CoV-2 3CLpro", "value": "60–70%"}]}]}
